This note sets out measurements from ChEMBL document CHEMBL5726001, “Compounds for use in preparing heterocyclic triazole agonists of the APJ receptor” (2018).

In the assay the target is T1, Apelin receptor (Homo sapiens, UniProt P35414).
T1 sequence (P35414 whole entry): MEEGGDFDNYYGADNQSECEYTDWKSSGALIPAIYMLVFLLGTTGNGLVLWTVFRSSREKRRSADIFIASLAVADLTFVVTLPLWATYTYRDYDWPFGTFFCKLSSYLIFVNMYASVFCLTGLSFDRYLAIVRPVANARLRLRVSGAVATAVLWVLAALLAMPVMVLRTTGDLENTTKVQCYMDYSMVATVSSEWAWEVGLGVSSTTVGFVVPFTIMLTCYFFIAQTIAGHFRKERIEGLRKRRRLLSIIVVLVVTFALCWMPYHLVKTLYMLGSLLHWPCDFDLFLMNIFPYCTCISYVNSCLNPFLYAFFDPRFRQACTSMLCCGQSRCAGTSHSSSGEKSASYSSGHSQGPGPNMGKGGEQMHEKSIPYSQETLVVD
Nature of the assay: [35S]GTPgammaS Binding: The human APJ receptor was cloned by polymerase chain reaction and the gene encoding the receptor was subcloned in pFLAG-CMV-3 expression vector (Sigma, Saint Louis, Mo. USA) in-house at Amgen. A GTPγS binding assay was performed on membranes prepared from CHO cells stably expressing human APJ receptor. The optimum experimental conditions for the concentrations of GDP, MgCl2, and NaCl in the assay buffer were initially determined. The assay was performed in assay buffer [20 mM HEPES, pH 7.5, 5 mM MgCl2, and 0.1% (w/v) BSA with 200 mM NaCl, 3 μM GDP] and membranes expressing human APJ receptor/well along with WGA PS beads. The reaction was initiated by addition of 0.2 nM [35S]GTPγS (Perkin Elmer Life and Analytical Sciences, Waltham USA) in the absence or presence of various ligands and incubated at RT for 90 min. Nonspecific binding was determined in the presence of 100 μM GTPγS and was always less than 0.2% of total binding. All the results presented are means of several independent experiments and analyzed by non-linear regression methods using commercially available program Prism (GraphPad, San Diego, Calif.).
Take `COc1cccc(OC)c1-n1c(NS(=O)(=O)[C@@H](C)[C@@H](OC(C)C)c2ncc(C)cn2)nnc1[C@H]1COCCO1`: the EC50 came out at 16 nM. Consider `COc1ncnc(OC)c1-n1c(NS(=O)(=O)[C@@H](C)[C@H](C)c2ncc(Cl)cn2)nnc1C1COC1`, for which the half-maximal effective concentration (EC50) amounted to 730 nM.

As to `CO[C@H]1CCC[C@@H](OC)[C@@H]1n1c(NS(=O)(=O)[C@@H](C)[C@H](C)c2ncc(C)cn2)nnc1C1CCCO1` (single isomer, unassigned), the EC50 was 240 nM.
